Source: ChEMBL document CHEMBL4840335, “Rational Design and Development of Novel CDK9 Inhibitors for the Treatment of Acute Myeloid Leukemia” (J Med Chem, 2021)
Active and inactive are the calls of the source. The rule behind the calls is not given here.

Key:
[1] = target: Vascular endothelial growth factor receptor 1 (Homo sapiens, UniProt P17948); assay: Inhibition of VEGFR1 (unknown origin)
Z-138 = assay: Antiproliferative activity against human Z138 cells assessed as reduction in cell proliferation measured after 3 to 7 days by MTS assay; type: functional, cell-based
MV4-11 [2] = assay: Induction of apoptosis in human MV4-11 cells assessed as downregulation of BCL2 at 1 to 10 uM measured after 12 hrs by Western blot analysis; type: functional, cell-based; conditions: dose 1-10 µM
[3] = target: Vascular endothelial growth factor receptor 2 (Homo sapiens, UniProt P35968); assay: Inhibition of KDR (unknown origin)
HL-60 = assay: Antiproliferative activity against human HL-60 cells assessed as reduction in cell proliferation measured after 3 to 7 days by MTS assay; type: functional, cell-based
Wee1-like protein kinase = Wee1-like protein kinase (Homo sapiens, UniProt P30291); assay: Inhibition of WEE1 (unknown origin)
[4] = target: Tyrosine-protein kinase receptor UFO (Homo sapiens, UniProt P30530); assay: Inhibition of AXL (unknown origin)
[5] = target: ALK tyrosine kinase receptor (Homo sapiens, UniProt Q9UM73); assay: Inhibition of ALK (unknown origin)
MV4-11 [6] = assay: Induction of apoptosis in human MV4-11 cells assessed as necrotic cells at 10 nM measured after 24 hrs by annexinV-FITC/propidium iodide staining based flow cytometry (reference value: 1.03 %); type: functional
[7] = target: Serine/threonine-protein kinase PAK 1 (Homo sapiens, UniProt Q13153); assay: Inhibition of PAK1 (unknown origin)
[8] = Observed clearance in ICR mouse at 2 mg/kg, iv measured up to 24 hrs; type: ADME, organism-based; conditions: in vivo
MV4-11 [9] = assay: Induction of apoptosis in human MV4-11 cells assessed as activation of caspase-3 at 5 to 50 nM measured after 24 hrs by Western blot analysis; type: functional, cell-based; conditions: dose 5-50 nM
[10] = Toxicity in Nu/Nu mouse xenografted with human MV4-11 cells assessed as body weight loss at 7.5 mg/kg, po administered for 21 consecutive days relative to control; type: organism-based; conditions: in vivo, 504 h, time 21 day
[11] = target: Epidermal growth factor receptor (Homo sapiens, UniProt P00533); assay: Inhibition of EGFR (unknown origin)
[12] = Observed AUC infinity in ICR mouse at 20 mg/kg, po measured up to 24 hrs; type: ADME, organism-based; design: route oral, dose 20 mg/kg, time <=24; conditions: in vivo
CCRF-CEM = assay: Antiproliferative activity against human CCRF-CEM cells assessed as reduction in cell proliferation measured after 3 to 7 days by MTS assay; type: functional, cell-based
MV4-11 [13] = assay: Induction of apoptosis in human MV4-11 cells assessed as early apoptotic cells at 10 nM measured after 24 hrs by annexinV-FITC/propidium iodide staining based flow cytometry (reference value: 0.79 %); type: functional
[14] = target: Tyrosine-protein kinase ABL1 (Homo sapiens, UniProt P00519); assay: Inhibition of ABL (unknown origin)
Kasumi 1 = assay: Antiproliferative activity against human Kasumi 1 cells assessed as reduction in cell proliferation measured after 3 to 7 days by MTS assay; type: functional, cell-based
[15] = Observed AUC infinity in ICR mouse at 2 mg/kg, iv measured up to 24 hrs; type: ADME, organism-based; design: route intravenous, dose 2 mg/kg, time <=24; conditions: in vivo
[16] = target: Hepatocyte growth factor receptor (Homo sapiens, UniProt P08581); assay: Inhibition of Met (unknown origin)
[17] = target: Serine/threonine-protein kinase 17B (Homo sapiens, UniProt O94768); assay: Inhibition of DRAK2 (unknown origin)
[18] = target: Receptor tyrosine-protein kinase erbB-4 (Homo sapiens, UniProt Q15303); assay: Inhibition of ErbB4 (unknown origin)
[19] = target: Cyclin-dependent kinase 4 (Homo sapiens, UniProt P11802); assay: Inhibition of CDK4 (unknown origin)
MV4-11 [20] = assay: Induction of apoptosis in human MV4-11 cells assessed as necrotic cells at 50 nM measured after 24 hrs by annexinV-FITC/propidium iodide staining based flow cytometry (reference value: 1.03 %); type: functional
[21] = target: Receptor tyrosine-protein kinase erbB-2 (Homo sapiens, UniProt P04626); assay: Inhibition of ErbB2 (unknown origin)
[22] = target: Tyrosine-protein kinase receptor TYRO3 (Homo sapiens, UniProt Q06418); assay: Inhibition of TYRO3 (unknown origin)
[23] = target: Fibroblast growth factor receptor 2 (Homo sapiens, UniProt P21802); assay: Inhibition of FGFR2 (unknown origin)
OCI-Ly10 = assay: Antiproliferative activity against human OCILY10 cells assessed as reduction in cell proliferation measured after 3 to 7 days by MTS assay; type: functional, cell-based
[24] = target: Cyclin-dependent kinase 6 (Homo sapiens, UniProt Q00534); assay: Inhibition of CDK6 (unknown origin)
[25] = Oral bioavailability in ICR mouse at 20 mg/kg measured up to 24 hrs; type: ADME, organism-based; conditions: in vivo
[26] = Antiproliferative activity against human MINO cells assessed as reduction in cell proliferation measured after 3 to 7 days by MTS assay; type: functional, cell-based
Raji = assay: Antiproliferative activity against human Raji cells assessed as reduction in cell proliferation measured after 3 to 7 days by MTS assay; type: functional, cell-based
RPMI-8226 = assay: Antiproliferative activity against human RPMI-8226 cells assessed as reduction in cell proliferation measured after 3 to 7 days by MTS assay; type: functional, cell-based
[27] = target: Fibroblast growth factor receptor 3 (Homo sapiens, UniProt P22607); assay: Inhibition of FGFR3 (unknown origin)
[28] = target: Insulin-like growth factor 1 receptor (Homo sapiens, UniProt P08069); assay: Inhibition of IGF1R (unknown origin)
MV4-11 [29] = assay: Induction of apoptosis in human MV4-11 cells assessed as late apoptotic cells at 10 nM measured after 24 hrs by annexinV-FITC/propidium iodide staining based flow cytometry (reference value: 3.04 %); type: functional
[30] = target: Cyclin-dependent kinase 9 (Homo sapiens) (UniProt P50750); assay: Inhibition of CDK9 in human MV4-11 cells assessed as reduction in RNAP2 phosphorylation at ser5 residues at 1 to 10 uM after 12 hrs by Western blot analysis; type: cell-based; conditions: dose 1-10 µM
[31] = target: Cyclin-dependent kinase 9 (Homo sapiens) (UniProt P50750); assay: Inhibition of CDK9 in human MV4-11 cells assessed as reduction in RNAP2 phosphorylation at ser2 residues at 1 to 10 uM after 12 hrs by Western blot analysis; type: cell-based; conditions: dose 1-10 µM
[32] = Half life in ICR mouse at 20 mg/kg, po measured up to 24 hrs; type: ADME, organism-based; conditions: in vivo
[33] = target: Serine/threonine-protein kinase Chk1 (Homo sapiens, UniProt O14757); assay: Inhibition of CHK1 (unknown origin)
MM1.S = assay: Antiproliferative activity against human MM1.S cells assessed as reduction in cell proliferation measured after 3 to 7 days by MTS assay; type: functional, cell-based
[34] = target: Fibroblast growth factor receptor 4 (Homo sapiens, UniProt P22455); assay: Inhibition of FGFR4 (unknown origin)
MV4-11 [35] = assay: Induction of apoptosis in human MV4-11 cells assessed as late apoptotic cells at 50 nM measured after 24 hrs by annexinV-FITC/propidium iodide staining based flow cytometry (reference value: 3.04 %); type: functional
[36] = target: Tyrosine-protein kinase BTK (Homo sapiens, UniProt Q06187); assay: Inhibition of BTK (unknown origin)

Cyclin-dependent kinase 9 (Homo sapiens), sequence (P50750 whole entry): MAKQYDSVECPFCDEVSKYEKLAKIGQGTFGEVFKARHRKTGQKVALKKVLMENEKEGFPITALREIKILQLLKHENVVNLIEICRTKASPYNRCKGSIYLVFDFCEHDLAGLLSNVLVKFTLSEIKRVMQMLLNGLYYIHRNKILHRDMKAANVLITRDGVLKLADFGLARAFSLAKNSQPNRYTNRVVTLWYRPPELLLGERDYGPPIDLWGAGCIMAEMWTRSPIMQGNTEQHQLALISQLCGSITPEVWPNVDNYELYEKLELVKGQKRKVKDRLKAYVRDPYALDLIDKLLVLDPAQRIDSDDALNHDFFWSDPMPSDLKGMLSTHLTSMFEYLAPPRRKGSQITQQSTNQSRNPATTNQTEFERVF
Cyclin-dependent kinase 4, sequence (P11802 whole entry): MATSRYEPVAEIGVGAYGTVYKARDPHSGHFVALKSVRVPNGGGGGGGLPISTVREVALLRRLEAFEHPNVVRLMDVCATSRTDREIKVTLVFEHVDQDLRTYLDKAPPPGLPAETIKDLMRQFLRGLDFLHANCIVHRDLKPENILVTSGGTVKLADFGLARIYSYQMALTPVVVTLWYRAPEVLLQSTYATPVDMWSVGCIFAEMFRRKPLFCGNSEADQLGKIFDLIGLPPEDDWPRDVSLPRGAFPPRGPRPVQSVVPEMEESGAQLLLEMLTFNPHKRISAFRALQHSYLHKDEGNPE
Tyrosine-protein kinase receptor UFO, sequence (P30530 whole entry): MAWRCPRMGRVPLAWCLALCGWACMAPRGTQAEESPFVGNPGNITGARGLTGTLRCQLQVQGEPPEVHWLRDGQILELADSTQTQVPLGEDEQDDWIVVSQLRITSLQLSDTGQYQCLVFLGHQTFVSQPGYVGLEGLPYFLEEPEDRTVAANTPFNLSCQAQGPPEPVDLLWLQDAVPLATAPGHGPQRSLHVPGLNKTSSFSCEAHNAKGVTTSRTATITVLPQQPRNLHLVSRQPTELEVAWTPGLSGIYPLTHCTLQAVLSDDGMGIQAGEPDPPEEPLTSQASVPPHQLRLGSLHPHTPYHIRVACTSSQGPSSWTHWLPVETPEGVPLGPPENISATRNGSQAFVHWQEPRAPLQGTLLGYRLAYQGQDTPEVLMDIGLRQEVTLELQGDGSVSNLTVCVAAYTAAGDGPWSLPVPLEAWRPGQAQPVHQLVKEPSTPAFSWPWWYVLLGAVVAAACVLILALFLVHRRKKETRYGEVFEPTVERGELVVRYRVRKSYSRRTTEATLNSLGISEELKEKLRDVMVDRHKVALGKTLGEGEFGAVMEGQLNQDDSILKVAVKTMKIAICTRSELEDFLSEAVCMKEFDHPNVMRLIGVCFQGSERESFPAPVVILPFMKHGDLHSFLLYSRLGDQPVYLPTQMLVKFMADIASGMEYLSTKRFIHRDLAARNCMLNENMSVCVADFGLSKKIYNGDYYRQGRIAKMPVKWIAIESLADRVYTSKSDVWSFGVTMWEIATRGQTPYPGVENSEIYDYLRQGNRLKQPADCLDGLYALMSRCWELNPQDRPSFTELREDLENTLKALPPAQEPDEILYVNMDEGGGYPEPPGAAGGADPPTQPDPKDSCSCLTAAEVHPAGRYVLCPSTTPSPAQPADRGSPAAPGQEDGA
Wee1-like protein kinase, sequence (P30291 whole entry): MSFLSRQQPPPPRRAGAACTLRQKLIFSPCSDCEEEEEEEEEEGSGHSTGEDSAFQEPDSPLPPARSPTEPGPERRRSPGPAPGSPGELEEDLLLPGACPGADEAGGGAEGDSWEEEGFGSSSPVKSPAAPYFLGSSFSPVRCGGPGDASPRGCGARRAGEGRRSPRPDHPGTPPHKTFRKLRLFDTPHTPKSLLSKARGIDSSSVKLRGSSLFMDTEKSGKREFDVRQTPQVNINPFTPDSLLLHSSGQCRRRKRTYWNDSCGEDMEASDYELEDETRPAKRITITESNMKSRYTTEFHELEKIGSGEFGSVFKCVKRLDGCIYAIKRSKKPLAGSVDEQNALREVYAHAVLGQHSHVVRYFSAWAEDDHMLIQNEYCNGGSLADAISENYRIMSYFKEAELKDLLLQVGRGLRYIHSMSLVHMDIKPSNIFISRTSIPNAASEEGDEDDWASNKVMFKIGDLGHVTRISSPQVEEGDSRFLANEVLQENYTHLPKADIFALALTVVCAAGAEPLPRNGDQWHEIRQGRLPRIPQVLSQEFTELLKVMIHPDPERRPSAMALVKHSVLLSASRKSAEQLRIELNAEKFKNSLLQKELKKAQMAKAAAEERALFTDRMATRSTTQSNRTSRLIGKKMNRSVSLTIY
Insulin-like growth factor 1 receptor, sequence (P08069 31-736 limits assumed): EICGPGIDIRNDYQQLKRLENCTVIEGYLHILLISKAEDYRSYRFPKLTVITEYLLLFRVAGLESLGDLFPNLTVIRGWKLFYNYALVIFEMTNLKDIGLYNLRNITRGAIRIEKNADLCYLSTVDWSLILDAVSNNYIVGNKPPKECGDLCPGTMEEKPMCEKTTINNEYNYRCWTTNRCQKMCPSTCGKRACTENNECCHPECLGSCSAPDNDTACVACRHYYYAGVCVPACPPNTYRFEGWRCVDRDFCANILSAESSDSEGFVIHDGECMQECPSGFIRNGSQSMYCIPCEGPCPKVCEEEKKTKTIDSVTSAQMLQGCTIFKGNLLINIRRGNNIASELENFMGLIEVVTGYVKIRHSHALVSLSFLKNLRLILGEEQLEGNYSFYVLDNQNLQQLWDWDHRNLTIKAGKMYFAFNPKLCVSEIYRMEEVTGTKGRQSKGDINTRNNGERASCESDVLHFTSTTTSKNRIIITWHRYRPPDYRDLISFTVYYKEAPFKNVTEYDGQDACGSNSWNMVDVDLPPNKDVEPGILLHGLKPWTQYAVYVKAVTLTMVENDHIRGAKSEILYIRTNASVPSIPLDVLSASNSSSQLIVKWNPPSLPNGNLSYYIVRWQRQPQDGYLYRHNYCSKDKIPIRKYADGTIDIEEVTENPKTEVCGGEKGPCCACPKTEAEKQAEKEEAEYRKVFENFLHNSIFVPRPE
Insulin-like growth factor 1 receptor, sequence (P08069 741-1367 limits assumed): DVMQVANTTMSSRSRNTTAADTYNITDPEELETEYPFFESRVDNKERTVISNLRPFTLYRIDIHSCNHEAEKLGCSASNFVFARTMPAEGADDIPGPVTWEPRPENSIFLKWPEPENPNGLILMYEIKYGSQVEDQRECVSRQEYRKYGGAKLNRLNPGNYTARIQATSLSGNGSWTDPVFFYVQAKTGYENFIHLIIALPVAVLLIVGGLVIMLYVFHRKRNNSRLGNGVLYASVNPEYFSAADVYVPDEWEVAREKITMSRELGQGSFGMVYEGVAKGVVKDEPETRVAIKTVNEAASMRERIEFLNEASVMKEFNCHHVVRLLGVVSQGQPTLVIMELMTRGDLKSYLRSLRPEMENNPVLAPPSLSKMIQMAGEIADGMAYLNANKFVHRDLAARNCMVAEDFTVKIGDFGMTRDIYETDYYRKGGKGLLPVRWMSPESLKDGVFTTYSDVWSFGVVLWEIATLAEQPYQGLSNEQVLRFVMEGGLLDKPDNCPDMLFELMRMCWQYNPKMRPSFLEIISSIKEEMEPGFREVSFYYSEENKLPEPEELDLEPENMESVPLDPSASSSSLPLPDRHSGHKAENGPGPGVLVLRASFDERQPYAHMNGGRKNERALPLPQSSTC
Vascular endothelial growth factor receptor 1, sequence (P17948 whole entry): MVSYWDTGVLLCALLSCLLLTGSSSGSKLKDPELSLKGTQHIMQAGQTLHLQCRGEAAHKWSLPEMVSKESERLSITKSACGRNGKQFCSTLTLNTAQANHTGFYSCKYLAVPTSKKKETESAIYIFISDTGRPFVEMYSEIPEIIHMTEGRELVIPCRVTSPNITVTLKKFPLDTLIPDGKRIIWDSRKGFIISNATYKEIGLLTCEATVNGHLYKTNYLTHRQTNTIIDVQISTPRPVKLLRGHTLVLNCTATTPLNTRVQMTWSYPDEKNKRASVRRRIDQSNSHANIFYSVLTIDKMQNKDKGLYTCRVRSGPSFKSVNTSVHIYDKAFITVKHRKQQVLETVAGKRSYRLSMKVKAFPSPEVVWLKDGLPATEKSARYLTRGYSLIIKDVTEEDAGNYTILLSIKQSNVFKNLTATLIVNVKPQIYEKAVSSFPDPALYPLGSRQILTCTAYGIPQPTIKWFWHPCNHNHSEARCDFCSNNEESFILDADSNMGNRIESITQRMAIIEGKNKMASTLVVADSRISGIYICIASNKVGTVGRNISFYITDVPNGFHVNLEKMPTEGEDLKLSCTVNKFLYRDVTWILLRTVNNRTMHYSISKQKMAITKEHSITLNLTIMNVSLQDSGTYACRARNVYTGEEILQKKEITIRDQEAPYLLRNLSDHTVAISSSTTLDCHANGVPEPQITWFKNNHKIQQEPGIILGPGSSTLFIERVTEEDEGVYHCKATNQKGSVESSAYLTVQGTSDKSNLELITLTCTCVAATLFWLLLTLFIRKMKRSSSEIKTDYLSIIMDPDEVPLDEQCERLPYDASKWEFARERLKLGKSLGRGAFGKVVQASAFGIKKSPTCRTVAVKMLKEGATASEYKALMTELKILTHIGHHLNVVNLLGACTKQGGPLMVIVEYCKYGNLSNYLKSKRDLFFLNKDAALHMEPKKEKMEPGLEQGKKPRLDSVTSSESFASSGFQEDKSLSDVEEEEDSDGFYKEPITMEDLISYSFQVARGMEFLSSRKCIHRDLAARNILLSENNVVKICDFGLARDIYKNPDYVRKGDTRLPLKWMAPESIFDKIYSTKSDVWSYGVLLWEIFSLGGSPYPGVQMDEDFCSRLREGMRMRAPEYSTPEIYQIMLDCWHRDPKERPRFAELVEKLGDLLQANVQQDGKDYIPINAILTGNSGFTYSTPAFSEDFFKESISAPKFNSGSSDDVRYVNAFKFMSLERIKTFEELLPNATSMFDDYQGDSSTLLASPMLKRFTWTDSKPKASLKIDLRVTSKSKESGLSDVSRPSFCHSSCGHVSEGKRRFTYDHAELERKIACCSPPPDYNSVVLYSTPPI

IC50 [1]: > 1 µM | IC50 [3]: > 1 µM | IC50 (HL-60): 0.044 µM | IC50 (Wee1-like protein kinase): > 1 µM | IC50 [4]: > 1 µM | IC50 [5]: > 1 µM | IC50 [7]: > 1 µM | clearance [8]: 3.6 L/h/kg | IC50 [11]: > 1 µM | AUC(0-inf) [12]: 1.88 µg·h/mL | IC50 (CCRF-CEM): 0.0021 µM | IC50 [14]: > 1 µM | AUC(0-inf) [15]: 0.558 µg·h/mL | IC50 [16]: > 1 µM | IC50 [17]: > 1 µM | IC50 [18]: > 1 µM | IC50 [19]: > 1 µM | IC50 [21]: > 1 µM | IC50 [22]: > 1 µM | IC50 [23]: > 1 µM | IC50 (OCI-Ly10): 0.0032 µM | IC50 [24]: > 1 µM | bioavailability [25]: 33.7% | IC50 (Raji): 0.037 µM | IC50 (RPMI-8226): 0.0054 µM | IC50 [27]: > 1 µM | IC50 [28]: > 1 µM | inhibition [30]: inactive | inhibition [31]: inactive | half-life [32]: 8.02 h | IC50 [33]: > 1 µM | IC50 (MM1.S): 0.013 µM | IC50 [34]: > 1 µM | IC50 [36]: > 1 µM
SMILES: Cc1n[nH]c2ccc(-c3cc(N[C@@H](CO)c4ccccc4)cnc3Cl)cc12
IC50 (Z-138): 0.046 µM | Activity (MV4-11 [2]): inactive | Activity (MV4-11 [6]): 0.84% | Activity (MV4-11 [9]): Active | Activity [10]: < 10% | Activity (MV4-11 [13]): 1.76% | IC50 (Kasumi 1): 0.021 µM | Activity (MV4-11 [20]): 3.59% | IC50 [26]: 0.0084 µM | Activity (MV4-11 [29]): 2.95% | Activity (MV4-11 [35]): 16.89%
